Values belong to the compound of their own block, whether it stands above or below them. Activity calls are given as the source filed them.
Experiments:
[1] = biological target: T1, 1-phosphatidylinositol 4,5-bisphosphate phosphodiesterase beta-3 (Homo sapiens, UniProt Q01970); test: Fluorescence-based biochemical high throughput dose response assay to identify inhibitors of phospholipase C isozymes (PLC-B3).
T1 sequence (Q01970 whole entry): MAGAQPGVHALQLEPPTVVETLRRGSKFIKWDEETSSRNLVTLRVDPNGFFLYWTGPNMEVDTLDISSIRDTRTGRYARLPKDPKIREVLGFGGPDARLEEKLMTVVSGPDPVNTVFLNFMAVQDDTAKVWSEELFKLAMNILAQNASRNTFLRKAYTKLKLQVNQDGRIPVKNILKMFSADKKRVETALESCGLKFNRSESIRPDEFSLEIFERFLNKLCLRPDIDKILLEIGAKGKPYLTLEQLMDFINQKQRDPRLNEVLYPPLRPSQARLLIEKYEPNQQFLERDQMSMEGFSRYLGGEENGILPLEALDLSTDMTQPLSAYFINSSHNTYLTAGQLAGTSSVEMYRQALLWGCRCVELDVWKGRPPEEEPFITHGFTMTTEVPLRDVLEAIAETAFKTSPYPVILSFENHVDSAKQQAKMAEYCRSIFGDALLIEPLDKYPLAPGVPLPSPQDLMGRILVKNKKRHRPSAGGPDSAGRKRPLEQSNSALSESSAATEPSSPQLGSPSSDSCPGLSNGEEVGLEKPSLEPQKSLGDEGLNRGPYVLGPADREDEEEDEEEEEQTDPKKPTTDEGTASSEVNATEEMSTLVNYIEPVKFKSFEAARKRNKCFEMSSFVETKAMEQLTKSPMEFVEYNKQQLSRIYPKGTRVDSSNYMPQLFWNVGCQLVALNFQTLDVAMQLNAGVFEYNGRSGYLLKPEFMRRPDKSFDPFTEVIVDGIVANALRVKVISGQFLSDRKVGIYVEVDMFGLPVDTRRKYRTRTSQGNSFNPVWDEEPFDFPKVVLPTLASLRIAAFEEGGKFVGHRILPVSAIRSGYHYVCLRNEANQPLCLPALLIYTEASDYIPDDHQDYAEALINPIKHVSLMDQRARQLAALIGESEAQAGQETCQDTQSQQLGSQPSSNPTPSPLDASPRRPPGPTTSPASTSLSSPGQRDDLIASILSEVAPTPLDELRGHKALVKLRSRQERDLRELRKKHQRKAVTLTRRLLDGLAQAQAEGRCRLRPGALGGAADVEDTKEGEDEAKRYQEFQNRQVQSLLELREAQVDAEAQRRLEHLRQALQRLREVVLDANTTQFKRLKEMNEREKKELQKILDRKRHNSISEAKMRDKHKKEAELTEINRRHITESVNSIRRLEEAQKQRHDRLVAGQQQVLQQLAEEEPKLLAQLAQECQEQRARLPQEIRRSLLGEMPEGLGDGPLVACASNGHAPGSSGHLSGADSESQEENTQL

[2] = biological target: T2, 1-phosphatidylinositol 4,5-bisphosphate phosphodiesterase gamma-1 (Homo sapiens, UniProt P19174); test: Counterscreen for inhibitors of phospholipase C isozymes (PLC-B3): Fluorescence-based biochemical high throughput dose response assay to identify inhibitors of phospholipase C isozymes (PLC-gamma1).
T2 sequence (P19174 whole entry): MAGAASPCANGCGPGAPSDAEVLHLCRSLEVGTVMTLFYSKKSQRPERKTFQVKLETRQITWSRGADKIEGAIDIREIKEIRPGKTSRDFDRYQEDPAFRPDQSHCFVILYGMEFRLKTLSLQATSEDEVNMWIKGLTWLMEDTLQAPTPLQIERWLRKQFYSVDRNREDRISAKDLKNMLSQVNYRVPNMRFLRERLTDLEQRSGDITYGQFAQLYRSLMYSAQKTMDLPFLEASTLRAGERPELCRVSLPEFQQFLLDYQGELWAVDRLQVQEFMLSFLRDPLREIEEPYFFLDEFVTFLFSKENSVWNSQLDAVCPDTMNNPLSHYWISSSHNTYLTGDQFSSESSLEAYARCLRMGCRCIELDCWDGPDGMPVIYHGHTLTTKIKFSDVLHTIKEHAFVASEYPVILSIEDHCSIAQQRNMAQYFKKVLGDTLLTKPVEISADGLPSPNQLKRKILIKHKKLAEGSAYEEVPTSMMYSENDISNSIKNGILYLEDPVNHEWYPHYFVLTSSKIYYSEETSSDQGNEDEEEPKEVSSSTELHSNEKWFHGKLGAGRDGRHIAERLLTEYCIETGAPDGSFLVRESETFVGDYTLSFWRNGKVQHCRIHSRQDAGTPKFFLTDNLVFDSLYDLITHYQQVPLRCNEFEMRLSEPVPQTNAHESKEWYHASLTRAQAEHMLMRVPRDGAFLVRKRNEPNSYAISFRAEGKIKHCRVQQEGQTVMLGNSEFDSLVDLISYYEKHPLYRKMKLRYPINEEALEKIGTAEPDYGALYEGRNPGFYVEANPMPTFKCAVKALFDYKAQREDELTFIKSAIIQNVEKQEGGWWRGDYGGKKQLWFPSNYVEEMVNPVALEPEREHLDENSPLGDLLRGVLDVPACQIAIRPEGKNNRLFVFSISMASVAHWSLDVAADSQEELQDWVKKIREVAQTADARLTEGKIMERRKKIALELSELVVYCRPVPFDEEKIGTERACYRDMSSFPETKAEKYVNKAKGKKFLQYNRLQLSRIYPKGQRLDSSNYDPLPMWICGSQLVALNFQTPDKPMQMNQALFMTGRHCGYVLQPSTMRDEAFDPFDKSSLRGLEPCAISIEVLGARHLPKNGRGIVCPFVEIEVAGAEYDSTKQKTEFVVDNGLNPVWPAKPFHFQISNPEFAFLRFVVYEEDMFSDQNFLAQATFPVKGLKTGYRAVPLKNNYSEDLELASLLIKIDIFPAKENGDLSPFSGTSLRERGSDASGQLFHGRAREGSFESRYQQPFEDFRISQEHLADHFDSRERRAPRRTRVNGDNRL

[3] = biological target: T3, Caspase-6 (Homo sapiens, UniProt P55212); test: human caspase-6 inhibitors, dose response, biochemical, VEID-R110 fluorescence, cherry-pick (AID 720632)
T3 sequence (P55212 whole entry): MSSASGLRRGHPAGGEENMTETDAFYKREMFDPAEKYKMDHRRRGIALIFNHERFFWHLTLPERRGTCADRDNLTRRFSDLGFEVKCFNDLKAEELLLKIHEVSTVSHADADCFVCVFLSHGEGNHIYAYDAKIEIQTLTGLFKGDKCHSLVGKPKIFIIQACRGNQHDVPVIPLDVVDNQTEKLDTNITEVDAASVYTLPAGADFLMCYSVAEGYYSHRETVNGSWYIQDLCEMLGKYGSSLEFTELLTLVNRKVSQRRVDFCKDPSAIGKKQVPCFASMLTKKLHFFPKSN

[4] = biological target: T4, Histone-lysine N-methyltransferase NSD2 (Homo sapiens, UniProt O96028); type: biochemical
T4 sequence (O96028 whole entry): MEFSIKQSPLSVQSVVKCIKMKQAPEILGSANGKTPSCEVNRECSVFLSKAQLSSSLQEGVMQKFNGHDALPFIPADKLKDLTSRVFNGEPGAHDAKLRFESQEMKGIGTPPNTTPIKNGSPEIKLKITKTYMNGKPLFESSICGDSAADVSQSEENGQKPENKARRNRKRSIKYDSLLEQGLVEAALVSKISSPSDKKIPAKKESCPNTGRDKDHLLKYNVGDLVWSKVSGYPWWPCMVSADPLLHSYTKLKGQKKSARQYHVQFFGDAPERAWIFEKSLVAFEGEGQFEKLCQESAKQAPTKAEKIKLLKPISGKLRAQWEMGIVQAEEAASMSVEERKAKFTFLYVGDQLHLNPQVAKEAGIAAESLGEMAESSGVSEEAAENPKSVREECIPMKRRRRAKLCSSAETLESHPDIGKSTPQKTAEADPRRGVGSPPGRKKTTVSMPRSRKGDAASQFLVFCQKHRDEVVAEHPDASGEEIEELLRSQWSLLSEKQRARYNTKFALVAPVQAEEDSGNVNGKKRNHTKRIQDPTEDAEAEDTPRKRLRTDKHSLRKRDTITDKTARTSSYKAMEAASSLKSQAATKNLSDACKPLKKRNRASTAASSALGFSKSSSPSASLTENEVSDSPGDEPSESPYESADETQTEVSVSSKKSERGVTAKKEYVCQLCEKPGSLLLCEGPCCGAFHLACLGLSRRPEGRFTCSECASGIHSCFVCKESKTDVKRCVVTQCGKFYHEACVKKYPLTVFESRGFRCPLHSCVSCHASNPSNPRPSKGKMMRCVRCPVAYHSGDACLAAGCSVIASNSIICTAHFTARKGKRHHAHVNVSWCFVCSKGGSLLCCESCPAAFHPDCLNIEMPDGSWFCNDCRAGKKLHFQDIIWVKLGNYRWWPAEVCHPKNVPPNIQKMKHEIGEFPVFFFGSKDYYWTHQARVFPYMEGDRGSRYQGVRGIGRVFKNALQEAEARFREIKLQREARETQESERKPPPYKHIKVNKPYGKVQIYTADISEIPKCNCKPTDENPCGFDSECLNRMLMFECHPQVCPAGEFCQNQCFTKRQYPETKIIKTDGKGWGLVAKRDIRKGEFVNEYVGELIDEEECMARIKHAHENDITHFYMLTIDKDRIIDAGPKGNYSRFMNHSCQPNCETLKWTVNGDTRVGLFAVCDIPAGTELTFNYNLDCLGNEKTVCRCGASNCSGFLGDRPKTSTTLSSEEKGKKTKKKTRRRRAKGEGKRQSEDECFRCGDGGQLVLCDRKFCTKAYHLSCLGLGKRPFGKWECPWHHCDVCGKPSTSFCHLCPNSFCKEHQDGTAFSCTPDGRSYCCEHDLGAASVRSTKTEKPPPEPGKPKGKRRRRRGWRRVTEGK

[5] = biological target: T5, Tyrosyl-DNA phosphodiesterase 2 (Homo sapiens, UniProt O95551); test: human TDP2 enzyme inhibitors, dose response, biochemical, epi absorbance, IC50 (AID 743297)
T5 sequence (O95551 whole entry): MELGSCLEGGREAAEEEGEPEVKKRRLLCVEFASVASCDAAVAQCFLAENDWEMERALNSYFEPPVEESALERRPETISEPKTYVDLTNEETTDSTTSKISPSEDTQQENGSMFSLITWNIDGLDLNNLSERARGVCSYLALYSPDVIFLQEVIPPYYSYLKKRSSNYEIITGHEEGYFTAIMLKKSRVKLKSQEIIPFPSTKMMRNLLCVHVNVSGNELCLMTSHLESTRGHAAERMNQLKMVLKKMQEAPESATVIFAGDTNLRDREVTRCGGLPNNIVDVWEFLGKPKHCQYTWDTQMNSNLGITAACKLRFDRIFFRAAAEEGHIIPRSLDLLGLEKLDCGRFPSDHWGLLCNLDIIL

[6] = IGROV1 ovarian cancer cell cytotoxicity, dose response, PAX8 inhibitor project, plate reader, dry powder samples (AID 743043); type: functional, cell-based; details: IGROV-1
[7] = biological target: Paired box protein Pax-8 (Homo sapiens, UniProt Q06710); test: inhibitors of PAX8-driven TPO luciferase reporter, dose response, RMG-I cells, cherry-pick (AID 687027); type: functional, cell-based;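 also: luciferase reporter driven by Pax8 target thyroperoxidase promoter measured by SteadyGlo luminescence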
Paired box protein Pax-8, sequence (Q06710 whole entry): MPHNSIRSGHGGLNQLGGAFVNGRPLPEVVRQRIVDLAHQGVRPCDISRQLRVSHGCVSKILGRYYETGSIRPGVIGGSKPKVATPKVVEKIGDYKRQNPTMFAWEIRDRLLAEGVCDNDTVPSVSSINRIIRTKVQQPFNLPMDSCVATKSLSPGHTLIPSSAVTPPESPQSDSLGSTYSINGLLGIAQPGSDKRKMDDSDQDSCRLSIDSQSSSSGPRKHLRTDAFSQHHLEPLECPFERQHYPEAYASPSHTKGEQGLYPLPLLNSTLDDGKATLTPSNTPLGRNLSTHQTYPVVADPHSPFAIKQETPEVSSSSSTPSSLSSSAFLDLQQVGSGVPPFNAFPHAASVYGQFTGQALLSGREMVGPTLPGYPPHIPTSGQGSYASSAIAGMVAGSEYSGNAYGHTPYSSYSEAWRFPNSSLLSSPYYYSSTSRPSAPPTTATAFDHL

[8] = NIH:OVCAR-3 ovarian cancer cell cytotoxicity, dose response, PAX8 inhibitor project, plate reader, dry powder samples (AID 743044); type: functional, cell-based
[9] = cytotoxicity in OVCAR8 ovarian cancer cells, dose response, PAX8 project, cell-based, plate reader, dry powder samples (AID 743197); type: functional; details: OVCAR-8
[10] = A2780 ovarian cancer cell cytotoxicity, dose response, cytotoxicity control, plate reader, dry powder samples (AID 743046); type: functional, cell-based

Structure (SMILES): COc1ccccc1-c1cc(C(=O)Nc2ccc(F)cc2F)no1
IC50 [1]: > 122 µM (inactive)
IC50 [2]: > 122 µM (inactive)

Structure (SMILES): COc1cc(N)c2ncccc2c1Br
AC50 [3]: 10 µM (active)
AC50 [4]: 13.1 µM (active)
IC50 [5]: > 128 µM (inactive)

Structure (SMILES): C[C@@H]1CCCCO[C@H](CN(C)Cc2ccc(Cl)c(Cl)c2)[C@@H](C)CN([C@@H](C)CO)C(=O)c2cc(NC(=O)Nc3ccc(F)cc3)ccc2O1
AC50 [6]: 29.6 µM (active)
AC50 [7]: 6.33 µM (active)
AC50 [8]: 51.3 µM (active)
AC50 [9]: > 70 µM (inactive)
AC50 [10]: 63.6 µM (active)

Other lines, results leading:

IC50 [1]: > 122 µM (inactive)
IC50 [2]: > 122 µM (inactive)
Structure (SMILES): O=C(CCc1ccccc1)N[C@H]1[C@@H](OC(=O)c2cnccn2)CCC[C@@]12C(=O)N(Cc1ccccc1)c1ccccc12

AC50 [3]: 12.1 µM (active)
Structure (SMILES): CO[C@H]1CN(C)C(=O)c2cc(NC(C)=O)ccc2OC[C@@H](C)N(C(=O)CC2CC2)C[C@H]1C

Reference: ChEMBL document CHEMBL1201862, “PubChem BioAssay data set” (2004)
